Biological target: JAK1 (Homo sapiens (Human), UniProt P23458)
Test: Jak biochemical HTRF assay, JAK1
Conditions: HTRF biochemical assay, recombinant GST-tagged catalytic domain; read-out: JAK1 IC50
Method: Jak Biochemical HTRF Assay Protocol
The ability of compounds to inhibit the activity of JAK1, JAK2, JAK3, and Tyk2 was measured using a recombinant purified GST-tagged catalytic domain for each enzyme (Invitrogen JAK1 #M4290, JAK2 #M4290, JAK3 #M4290, Tyk2 #M4290) in an HTRF format biochemical assay. […] The basic assay protocol is as follows: First, 250 nL of diluted compounds in DMSO were dispensed into the wells of a dry 384-well Black plate (Greiner #781076) using a Labcyte Echo 555 acoustic dispenser. Subsequent reagent additions employed an Agilent Bravo. […] After equilibration, 2 μL of 10×ATP in 1× assay buffer was added to initiate the kinase reaction and the plates were shaken and then incubated at room temperature for 120 minutes. […] Plates were shaken and centrifuged and then incubated 60 minutes at room temperature and then read on a Perkin Elmer Envision (λex=337 nm, λem=665 and 615 nm, TRF delay time=20 μs). HTRF signal=10,000*665 nm reading/615 nm reading. After normalization to untreated controls, the percent inhibition of the HTRF signal at each compound concentration was calculated. The plot of percent inhibition versus the log of compound concentration was fit with a 4-parameter dose response equation to calculate IC50 values.
Final Reaction Conditions were:
Examples of the instant invention were evaluated in JAK1 and JAK2 in vitro binding assays.

JAK1, sequence (P23458 875-1153): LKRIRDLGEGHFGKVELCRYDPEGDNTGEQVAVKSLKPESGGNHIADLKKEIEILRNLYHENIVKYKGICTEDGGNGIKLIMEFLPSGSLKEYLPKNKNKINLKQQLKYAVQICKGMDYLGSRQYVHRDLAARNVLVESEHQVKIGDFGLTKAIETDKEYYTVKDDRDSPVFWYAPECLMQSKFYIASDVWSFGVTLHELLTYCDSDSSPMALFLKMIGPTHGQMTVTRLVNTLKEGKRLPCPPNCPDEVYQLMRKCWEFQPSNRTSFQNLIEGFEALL

Row | Compound | IC50 [nM]
1 | CC(C)(C)OC(=O)CCN1Cc2ccc(Nc3nn([C@H]4CCCC[C@@H]4C#N)c4cc[nH]c(=O)c34)cc2C1 [Example 3-163, tert-butyl 3-[5-({1-[(1S,2S)-2-cyanocyclohexyl]-4-oxo-4,5-dihydro-1H-pyrazolo[4,3-c]pyridin-3-yl}amino)-1,3-dihydro-2H-isoindol-2-yl]propanoate] | 0.49
2 | CC(C)(C)N1Cc2cc(Nc3nn([C@@H]4CCCCC[C@H]4C#N)c4cc[nH]c(=O)c34)ccc2S1(=O)=O (single isomer, unassigned) [Example 3-177, (1R,2R or 1S,2S)-2-{3-[(2-tert-butyl-1,1-dioxido-2,3-dihydro-1,2-benzisothiazol-5-yl)amino]-4-oxo-4,5-dihydro-1H-pyrazolo[4,3-c]pyridin-1-yl}cycloheptanecarbonitrile] | 0.046
3 | N#C[C@H]1CCCC[C@@H]1n1nc(Nc2ccc(F)cc2)c2c(=O)[nH]ccc21 (racemic) [Example 2-1, (trans)-2-{3-[(4-Fluorophenyl)amino]-4-oxo-4,5-dihydro-1H-pyrazolo[4,3-c]pyridin-1-yl}cyclohexanecarbonitrile] | 0.56
4 | CC(c1ccc(Nc2nn([C@H]3CCCC[C@@H]3C#N)c3cc[nH]c(=O)c23)cc1)n1ccnn1 (single isomer, unassigned) [Example 15-41, (1S,2S)-2-[4-oxo-3-({4-[(1R or 1S)-1-(1H-1,2,3-triazol-1-yl)ethyl]phenyl}amino)-4,5-dihydro-1H-pyrazolo[4,3-c]pyridin-1-yl]cyclohexanecarbonitrile] | 0.21
5 | N#C[C@H]1CCC[C@@H]1n1nc(Nc2ccc(S(N)(=O)=O)cc2)c2c(=O)[nH]ccc21 [Example 3-99, 4-({1-[(1S,2S)-2-cyanocyclopentyl]-4-oxo-4,5-dihydro-1H-pyrazolo[4,3-c]pyridin-3-yl}amino)benzenesulfonamide] | 0.09
6 | CC1NCc2cc(Nc3nn([C@H]4CCCC[C@@H]4C#N)c4cc[nH]c(=O)c34)ccc21 (single isomer, unassigned) [Example 12-4, (1S,2S)-2-(3-{[(1S or 1R)-1-methyl-2,3-dihydro-1H-isoindol-5-yl]amino}-4-oxo-4,5-dihydro-1H-pyrazolo[4,3-c]pyridin-1-yl)cyclohexanecarbonitrile] | 0.58
7 | N#C[C@@H]1CCCCC[C@H]1n1nc(Nc2ccc3c(c2)CN(C(=O)N2CCCCC2)C3)c2c(=O)[nH]ccc21 (single isomer, unassigned) [Example 15-53, (1R,2R or 1S,2S)-2-(4-oxo-3-{[2-(piperidin-1-ylcarbonyl)-2,3-dihydro-1H-isoindol-5-yl]amino}-4,5-dihydro-1H-pyrazolo[4,3-c]pyridin-1-yl)cycloheptanecarbonitrile] | 0.42
8 | N#C[C@H]1CCCC[C@@H]1n1nc(Nc2ccc(C3(C(F)(F)F)CCCN3)cc2)c2c(=O)[nH]ccc21 (single isomer, unassigned) [Example 15-61, (1S,2S)-2-[4-oxo-3-({4-[(2R or 2S)-2-(trifluoromethyl)pyrrolidin-2-yl]phenyl}amino)-4,5-dihydro-1H-pyrazolo[4,3-c]pyridin-1-yl]cyclohexanecarbonitrile] | 0.14
9 | CC1c2cc(Nc3nn([C@H]4CCCC[C@@H]4C#N)c4cc[nH]c(=O)c34)ccc2S(=O)(=O)N1CC(F)(F)F (single isomer, unassigned) [Example 3-129, (1S,2S)-2-(3-(((R or S)-3-methyl-1,1-dioxido-2-(2,2,2-trifluoroethyl)-2,3-dihydrobenzo[d]isothiazol-5-yl)amino)-4-oxo-4,5-dihydro-1H-pyrazolo[4,3-c]pyridin-1-yl)cyclohexanecarbonitrile] | 1.1
10 | CC(C)OC(=O)C(C)(C)C(O)(c1ccc(Nc2nn([C@H]3CCCC[C@@H]3C#N)c3cc[nH]c(=O)c23)cc1)C(F)(F)F (single isomer, unassigned) [Example 3-120, (R or S) Isopropyl 3-(4-((1-((1S,2S)-2-cyanocyclohexyl)-4-oxo-4,5-dihydro-1H-pyrazolo[4,3-c]pyridin-3-yl)amino)phenyl)-4,4,4-trifluoro-3-hydroxy-2,2-dimethylbutanoate] | 1
